Earlier results on eight molecules are cited in patent US5399700A, “Method for preparing enteric-coated oral drugs containing acid-unstable compounds” (Sunkyong Industries Co., Ltd., priority 1991, dated 1995).

One may read the pKa as the negative logarithm of the acid dissociation constant. Usually half-life stands for the time needed for the level to fall by half in the phase considered.

The conditions of series [1]: Table 9.
Assay in series [2]: not given
This is another data set of the same source.

Where two headings read alike, the source gives them in different places.

In the case of `OC[C@H]1O[C@@H]2O[C@H]3[C@H](O)[C@@H](O)[C@@H](O[C@H]4[C@H](O)[C@@H](O)[C@@H](O[C@H]5[C@H](O)[C@@H](O)[C@@H](O[C@H]6[C@H](O)[C@@H](O)[C@@H](O[C@H]7[C@H](O)[C@@H](O)[C@@H](O[C@H]8[C@H](O)[C@@H](O)[C@@H](O[C@H]1[C@H](O)[C@H]2O)O[C@@H]8CO)O[C@@H]7CO)O[C@@H]6CO)O[C@@H]5CO)O[C@@H]4CO)O[C@@H]3CO` [β-CD, β-cyclodextrin], the “Ring-opening Half-life” value (60° C., 1N HCl) is on record as 5.4 h.
For the molecule `CC(C)CN` [Isobutylamine], in series [1], the pKa is reported as 10.42.
Regarding `OC[C@H]1O[C@@H]2O[C@H]3[C@H](O)[C@@H](O)[C@@H](O[C@H]4[C@H](O)[C@@H](O)[C@@H](O[C@H]5[C@H](O)[C@@H](O)[C@@H](O[C@H]6[C@H](O)[C@@H](O)[C@@H](O[C@H]7[C@H](O)[C@@H](O)[C@@H](O[C@H]8[C@H](O)[C@@H](O)[C@@H](O[C@H]9[C@H](O)[C@@H](O)[C@@H](O[C@H]1[C@H](O)[C@H]2O)O[C@@H]9CO)O[C@@H]8CO)O[C@@H]7CO)O[C@@H]6CO)O[C@@H]5CO)O[C@@H]4CO)O[C@@H]3CO` [γ-CD], the “Ring-opening Half-life” value (60° C., 1N HCl) is given as 3.0 h.
`COc1ccc2[nH]c([S+]([O-])Cc3ncc(C)c(OC)c3C)nc2c1` (stereo not shown) [omeprazole]: the half-life in series [2] (medium of below pH 4) was 0.167 h; in series [2] (pH 6.8), 18 h; in series [2] (pH 11) it was “about 300 days”.
For `CCCN` [Propylamine], in series [1], the pKa is recorded as 10.57.
As to `OC[C@H]1O[C@@H]2O[C@H]3[C@H](O)[C@@H](O)[C@@H](O[C@H]4[C@H](O)[C@@H](O)[C@@H](O[C@H]5[C@H](O)[C@@H](O)[C@@H](O[C@H]6[C@H](O)[C@@H](O)[C@@H](O[C@H]7[C@H](O)[C@@H](O)[C@@H](O[C@H]1[C@H](O)[C@H]2O)O[C@@H]7CO)O[C@@H]6CO)O[C@@H]5CO)O[C@@H]4CO)O[C@@H]3CO` [α-CD, α-cyclodextrin], the “Ring-opening Half-life” value (1n hcl) was 6.2 h.
With `CC(C)(C)N` [Tert-butylamine], in series [1], the pKa was 10.87.
For the molecule `CCCCN(CCCC)CCCC` [Tributylamine], in series [1], the pKa is given as 10.87.
